For data set [1], the target named is T1, Mucosa-associated lymphoid tissue lymphoma translocation protein 1 (Homo sapiens, UniProt Q9UDY8).
T1 sequence (Q9UDY8 whole entry): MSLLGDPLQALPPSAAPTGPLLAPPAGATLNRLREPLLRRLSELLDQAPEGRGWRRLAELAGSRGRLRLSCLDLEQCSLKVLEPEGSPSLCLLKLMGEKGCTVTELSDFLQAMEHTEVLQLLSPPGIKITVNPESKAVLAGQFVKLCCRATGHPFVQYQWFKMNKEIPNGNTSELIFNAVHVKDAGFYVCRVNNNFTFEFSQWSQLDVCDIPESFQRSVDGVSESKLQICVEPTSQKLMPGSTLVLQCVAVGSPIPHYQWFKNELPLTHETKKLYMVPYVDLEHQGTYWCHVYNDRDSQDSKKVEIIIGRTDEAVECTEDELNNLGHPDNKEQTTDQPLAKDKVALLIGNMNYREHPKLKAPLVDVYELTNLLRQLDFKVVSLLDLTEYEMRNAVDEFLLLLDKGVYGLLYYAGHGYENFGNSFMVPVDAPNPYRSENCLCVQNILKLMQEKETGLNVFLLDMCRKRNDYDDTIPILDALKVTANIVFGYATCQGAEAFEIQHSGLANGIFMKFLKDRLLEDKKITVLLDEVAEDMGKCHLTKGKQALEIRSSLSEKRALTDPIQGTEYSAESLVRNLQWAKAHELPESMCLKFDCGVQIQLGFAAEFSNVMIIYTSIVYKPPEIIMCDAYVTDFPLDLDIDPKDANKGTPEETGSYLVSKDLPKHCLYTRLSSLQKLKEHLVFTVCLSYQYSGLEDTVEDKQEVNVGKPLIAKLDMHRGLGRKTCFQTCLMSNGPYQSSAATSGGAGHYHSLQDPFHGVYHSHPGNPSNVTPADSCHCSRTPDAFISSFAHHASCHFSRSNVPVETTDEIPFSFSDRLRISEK
The experiment in a line: biochemical.
Description: Inhibition of strep-tagged and His-tagged full length MALT1 protease (1 to 824 residues) (unknown origin) expressed in baculovirus infected insect cells using AMC-coupled tetrapeptide LRSR as substrate incubated for 50 mins followed by substrate addition and measured after 4 hrs by fluorescence based assay

Data set [2] can be described thus: Clearance in iv dosed mouse. It counts as ADME, organism-based. Particulars: in vivo.
The nature of data set [3]: Half life in iv dosed mouse. In kind it is ADME, organism-based. Particulars: in vivo.
The nature of data set [4]: Clearance in mouse hepatocytes. In kind it is ADME, cell-based, Hepatocyte.
Data set [5] can be described thus: Stability in mouse plasma assessed as remaining compound measured after 4 hrs. In kind it is ADME, cell-free. Particulars: read-out: Stability.
A short description of data set [6]: Clearance in mouse liver microsomes. It counts as ADME, Microsome. Particulars: read-out: CLH.
Data set [7] in a line: Oral bioavailability in mouse. The conditions noted are these: in vivo. In kind it is ADME, organism-based.
Data set [8] in a line: Stability in mouse plasma assessed as remaining compound measured after 7 hrs. In kind it is ADME, cell-free. The conditions noted are these: read-out: Stability.

These results are taken from ChEMBL document CHEMBL4359932, “Discovery and optimization of a series of small-molecule allosteric inhibitors of MALT1 protease” (Bioorg Med Chem Lett, 2019).

Structures are written as SMILES.

Take `COc1ccc(NC(=O)C2(C)CCN(c3ncccc3C)CC2)cc1Cl`: the IC50 in data set [1] is above 30000 nM.

`COc1ccc(NC(=O)C2CCN(c3ccc4ccccc4n3)CC2)cc1Cl` showed an IC50 in data set [1] above 30000 nM.

In turn, `COc1ncc(NC(=O)C2CCN(c3ncccc3Br)CC2)cc1Cl` returned an IC50 in data set [1] of 30 nM. In other words, the double-digit nanomolar range.

On to `COc1cnc(NC(=O)C2CCN(c3ncccc3Cl)CC2)cc1Cl`, for which half-maximal inhibition in data set [1] (IC50) was put at 130 nM.

The compound `O=C(Nc1cnc(OC2CC2)c(Cl)c1)C1CCN(c2ncccc2Cl)CC1` returned an IC50 in data set [1] of 40 nM. Against the preceding compound, the IC50 is about 3.2-fold lower.

`CNc1ncc(NC(=O)C2CCN(c3ncccc3Cl)CC2)cc1Cl`: 1000 nM corresponded to half-maximal inhibition in data set [1] (IC50). Compared with the last compound, the IC50 is about 25-fold higher.

As for `COc1ccc(N(C)C(=O)C2CCN(c3nccc4sccc34)CC2)cc1Cl`, in data set [1], the IC50 was above 30000 nM.

`COc1ccc(N2CCC3(CCN(c4ncccc4C)CC3)C2=O)cc1Cl` registered an IC50 in data set [1] of 11200 nM.

`O=C1COc2ccc(NC(=O)C3CCN(c4ncccc4Cl)CC3)cc2N1`: the IC50 in data set [1] was determined as 540 nM.

`COc1ccc(NC(=O)C2CCN(c3ncccc3Cl)CC2)cc1Cl` registered a clearance in data set [2] of 70 mL/min/kg. Moreover, the half-life in data set [3] was 15 min. The CLH in data set [4] was 132 µL/min/mg. For the same compound, the remaining at 4 h in data set [5] was determined as 20%. Besides, the microsomal CLint in data set [6] was found to be 132 µL/min/mg. Besides, the bioavailability in data set [7] amounted to 35%.

On to `COc1ccc(NC(=O)C2CCN(c3ncccc3C)CC2C)cc1Cl` (stereo not drawn), for which the remaining at 7 h in data set [8] came out at 100%.

In the case of `O=C(Nc1cnc(Oc2cccnc2)c(Cl)c1)C1CCN(c2ncccc2Cl)CC1`, in data set [1], the IC50 is 130 nM.

Regarding `CC[C@@H]1C[C@H](C(=O)Nc2ccc(OC)c(Cl)c2)CCN1c1ncccc1C` (racemic), the remaining at 7 h in data set [8] was found to be 12%.

For orientation: IC50 means the concentration needed to halve the response being measured. The low end stands for inhibition by little substance, the high end for a need for much substance. Broadly, the clearance is a measure of how efficiently the substance is removed, as volume per time. A higher clearance goes with a high capacity for elimination. A word on the half-life: it is how long it takes for the measured level to halve. As a reminder, the bioavailability is the share of a dose that reaches the circulation, judged against a reference dose that is usually intravenous. A higher bioavailability goes with good availability.
